In brackets after ≈: the same amount, converted by molar mass. Like-named read-outs stand apart in the source and are kept apart here.
How the values were obtained:
[1] = system: Moloney Sarcoma Virus; assay: Foci formation by Moloney Sarcoma Virus in mouse embryo fibroblast cultures; assay type: cell-based; settings: for IC50 / activity at 0.0062 µg/mL / activity at 0.025 µg/mL / activity at 0.1 µg/mL / activity at 0.4 µg/mL: Fibroblast, 72 h, 3 days treatment; for IC50: read-out: Foci Formation ID50 (A); for B/A: ratio ID50 cell proliferation (B) / ID50 foci formation (A), 4320 min; for activity at 0.0062 µg/mL: 0.0062 μg/ml; for activity at 0.0062 µg/mL / activity at 0.025 µg/mL / activity at 0.1 µg/mL / activity at 0.4 µg/mL: read-out: Foci Formation (% of controls); for activity at 0.025 µg/mL: 0.025 μg/ml; for activity at 0.1 µg/mL: 0.1 μg/ml; for activity at 0.4 µg/mL: 0.4 μg/ml
Method: (§1) The test compounds were evaluated on mouse embryo fibroblast cultures infected with MSV. After a treatment of three days, the inhibiting doses (ID50) were evaluated on cell proliferation and on MSV foci formation.
(§2) Effect of compounds (VI and (VII) on foci formation and on cell proliferation in cultured mice fibroblasts infected with Moloney Sarcoma Virus. (3 days treatment)

[2] = Cell proliferation in cultured mice fibroblasts infected with Moloney Sarcoma Virus; assay type: cell-based, mouse; settings: mouse, embryo fibroblasts; 3 days treatment; read-out: Cell Proliferation ID50 (B)
Method: as §1, §2

[3] = system: HeLa cells; assay: Proliferative activity (colony counts) of cultured HeLa cells at different exposure times; assay type: cell-based; settings: Homo sapiens; for IC50: read-out: ID50 (50% inhibition of colonies); for activity at 0.025 µg/mL: 0.025 μg/ml; for activity at 0.05 µg/mL: 0.05 μg/ml; for activity at 0.1 µg/mL: 0.1 μg/ml; for activity at 0.25 µg/mL: 0.25 μg/ml; for activity at 0.5 µg/mL: 0.5 μg/ml; for activity at 1 µg/mL: 1 μg/ml
Excerpt: (§3) Tests in vitro on the effect of compounds (VI) and (VII) on the micotic index and the proliferative activity of cultured HeLa cells at different exposure times. The results in Table 4 are expressed as a percent of the untreated controls. The ID50 represents the dose which gives a 50% inhibition of colonies.

[4] = system: mouse embryo fibroblast cultures infected with MSV; assay: Cell proliferation in cultured mice fibroblasts infected with Moloney Sarcoma Virus; assay type: cell-based; settings: Mus musculus, Fibroblast, 72 h, 3 days treatment, read-out: Cell Proliferation (% of controls); for activity at 0.0062 µg/mL: 0.0062 μg/ml; for activity at 0.025 µg/mL: 0.025 μg/ml; for activity at 0.1 µg/mL: 0.1 μg/ml; for activity at 0.4 µg/mL: 0.4 μg/ml
Method: as §1, §2

[5] = system: cultured cells; assay: Inhibition of cell mitosis and proliferation in cultured cells (summary); assay type: cell-based; settings: cultured cells in vitro
Method: (§4) The antitumor activity of the novel antibiotic compounds of the invention, i.e., 4'-epi-daunomycin (VI) and 4'-epidaunomycin, β-anomer, (VII) was evaluated on several transplanted tumors in mice, and in in vitro tests, in comparison with the known antitumor agent daunomycin (IV).

[6] = system: single myocardial cells isolated from the hearts of newborn mice
Method: The cardiotoxic activity of compound (VI) was evaluated in vitro on single myocardial cells isolated by trypsinization from the hearts of newborn mice (Necco A., Dasdia T. IRCS, 2: 1293, 1974). After 3-4 days, the cell cultures, showing clusters of beating cells, are studied both as to frequency and rhythym.

[7] = system: a number of experimental tumors; assay: Antitumor activity on experimental tumors in mice (summary); assay type: in vivo; settings: mean survival time, non-toxic doses
Method: as §4

[8] = system: ASCITES SARCOMA 180; assay: Action on ascites sarcoma 180 in mice; assay type: in vivo, mice (Swiss CD 1); settings: for Average Survival Time (%): 1 day after inoculation, untreated = 100%
Method: The tests were carried out on groups of 10 female mice (Swiss CD 1). The compounds under examination were administered intraperitoneally in varying doses to the test animals 1 day after intraperitoneal inoculation with 1 × 10^6 tumor cells per animal. The average survival time is given in Table 1 as a percentage of the survival time of untreated animals, which is arbitrarily designated as 100%. Also given in Table 1 are the number of long term survivors.

[9] = system: oncogenic viruses; assay: Cell transformation induced by oncogenic viruses (summary); assay type: cell-based
Method: as §4

[10] = system: TR[…] LEUKEMIA; assay: Transplanted Gross leukemia in mice; assay type: in vivo, Inbred C3 H female mice; settings: first to fifth day, control = 100
Excerpt: Inbred C3 H female mice were intravenously inoculated with a suspension of leukemia lymphonodes and spleen cells (2.5 × 10^6 leukemia cells/mouse) and treated, intravenously, from the first to the fifth day after inoculation with the compounds under examination.

[11] = system: HeLa cells; assay: Micotic index of cultured HeLa cells at different exposure times; assay type: cell-based; settings: Homo sapiens; for activity at 0.025 µg/mL: 0.025 μg/ml; for activity at 0.05 µg/mL: 0.05 μg/ml; for activity at 0.1 µg/mL: 0.1 μg/ml; for activity at 0.25 µg/mL: 0.25 μg/ml; for activity at 0.5 µg/mL: 0.5 μg/ml; for activity at 1 µg/mL: 1 μg/ml
Excerpt: as §3

[12] = 2h, value marked * Metaphasic block

## COc1cccc2c1C(=O)c1c(O)c3c(c(O)c1C2=O)C[C@@](O)(C(C)=O)C[C@@H]3O[C@H]1C[C@H](N)[C@H](O)[C@H](C)O1 [IV, 7-O-(3'-amino-2',3',6'-trideoxy-α-L-lyxohexopyranosyl)-daunomycin-one, reference compound]
[1]
  IC50: 0.006 µg/mL (≈ 0.0114 µM)
  B/A: 1.4
[2]
  CC50 at 72 h: 0.0086 µg/mL (≈ 0.0163 µM)
[3]; 2h exposure
  IC50: 0.098 µg/mL (≈ 0.186 µM)
[3]; 8h exposure
  IC50: 0.036 µg/mL (≈ 0.0682 µM)
[3]; 24h exposure
  IC50: 0.021 µg/mL (≈ 0.0398 µM)

## COc1cccc2c1C(=O)c1c(O)c3c(c(O)c1C2=O)C[C@@](O)(C(C)=O)C[C@@H]3O[C@H]1C[C@H](N)[C@@H](O)[C@H](C)O1 [VI, 7-0-(3'-amino-2',3',6'-trideoxy-α-L-arabinohexopyranosyl)-daunomycinone]
[1]
  activity at 0.0062 µg/mL: 51%
  activity at 0.025 µg/mL: 0%
  activity at 0.1 µg/mL: 0%
  activity at 0.4 µg/mL: 0%
  IC50: 0.006 µg/mL (≈ 0.0114 µM)
  B/A: 2.1
[2]
  CC50 at 72 h: 0.013 µg/mL (≈ 0.0246 µM)
[4]
  activity at 0.0062 µg/mL: 75%
  activity at 0.025 µg/mL: 23%
  activity at 0.1 µg/mL: 14%
  activity at 0.4 µg/mL: 1%
[5]
  inhibition of cell mitosis and proliferative activity: powerful inhibitors of cell mitosis and proliferative activity in cultured cells in vitro
[6]
  cardiotoxic activity: lower than that of daunomycin (IV)
[7]
  antitumor activity in mice: increase in the mean survival time at non-toxic doses
[8]; 0.22 mg/kg i.p.
  Long Term Survivors after 60 days: 1/10
  Average Survival Time (%): 111.1%
[8]; 1.1 mg/kg i.p.
  Long Term Survivors after 60 days: 1/10
  Average Survival Time (%): 120.8%
[8]; 5.7 mg/kg i.p.
  Long Term Survivors after 60 days: 0/10
  Average Survival Time (%): 174.5%
[9]
  activity on cell transformation induced by oncogenic viruses: substantial activity on cell transformation induced by oncogenic viruses
[10]; 1.5 mg/kg daily i.v.
  Average Survival Time (%): 115%
[10]; 2.25 mg/kg daily i.v.
  Average Survival Time (%): 143%
[10]; 3 mg/kg daily i.v.
  Average Survival Time (%): 162%
[10]; 3.75 mg/kg daily i.v.
  Average Survival Time (%): 122%
[10]; 4.5 mg/kg daily i.v.
  Average Survival Time (%): 120%
[11]; [12]
  activity at 0.025 µg/mL: 226%
  activity at 0.05 µg/mL: 189%
[11]; 4h
  activity at 0.025 µg/mL: 100%
  activity at 0.05 µg/mL: 103%
  activity at 0.1 µg/mL: 140%
[11]; 8h
  activity at 0.025 µg/mL: 117%
  activity at 0.05 µg/mL: 122%
  activity at 0.1 µg/mL: 0%
[11]; 2h
  activity at 0.1 µg/mL: 79%
[3]; 2h
  activity at 0.025 µg/mL: 113%
  activity at 0.05 µg/mL: 115%
  activity at 0.1 µg/mL: 77%
[3]; 8h
  activity at 0.025 µg/mL: 88%
  activity at 0.05 µg/mL: 56%
  activity at 0.1 µg/mL: 23%
[3]; 24h
  activity at 0.025 µg/mL: 48%
  activity at 0.05 µg/mL: 23%
  activity at 0.1 µg/mL: 3%
[3]; 2h exposure
  IC50: 0.16 µg/mL (≈ 0.303 µM)
[3]; 8h exposure
  IC50: 0.056 µg/mL (≈ 0.106 µM)
[3]; 24h exposure
  IC50: 0.027 µg/mL (≈ 0.0512 µM)

## COc1cccc2c1C(=O)c1c(O)c3c(c(O)c1C2=O)C[C@@](O)(C(C)=O)C[C@@H]3O[C@@H]1C[C@H](N)[C@@H](O)[C@H](C)O1 [VII, 7-O-(3'-amino-2',3',6'-trideoxy-β-L-arabinohexopyranosyl)-daunomycinone]
[1]
  activity at 0.0062 µg/mL: 48%
  activity at 0.025 µg/mL: 44%
  activity at 0.1 µg/mL: 5%
  activity at 0.4 µg/mL: 0%
  IC50: 0.01 µg/mL (≈ 0.019 µM)
  B/A: 6.4
[2]
  CC50 at 72 h: 0.064 µg/mL (≈ 0.121 µM)
[4]
  activity at 0.0062 µg/mL: 87%
  activity at 0.025 µg/mL: 80%
  activity at 0.1 µg/mL: 28%
  activity at 0.4 µg/mL: 14%
[5]
  inhibition of cell mitosis and proliferative activity: powerful inhibitors of cell mitosis and proliferative activity in cultured cells in vitro
[7]
  antitumor activity in mice: increase in the mean survival time at non-toxic doses
[8]; 0.26 mg/kg i.p.
  Long Term Survivors after 60 days: 0/10
  Average Survival Time (%): 96.6%
[8]; 1.3 mg/kg i.p.
  Long Term Survivors after 60 days: 1/10
  Average Survival Time (%): 114.8%
[8]; 6.7 mg/kg i.p.
  Long Term Survivors after 60 days: 1/10
  Average Survival Time (%): 118.6%
[9]
  activity on cell transformation induced by oncogenic viruses: substantial activity on cell transformation induced by oncogenic viruses
[10]; 1.5 mg/kg daily i.v.
  Average Survival Time (%): 106%
[10]; 2.25 mg/kg daily i.v.
  Average Survival Time (%): 102%
[10]; 3 mg/kg daily i.v.
  Average Survival Time (%): 121%
[11]; 2h
  activity at 0.25 µg/mL: 137%
  activity at 0.5 µg/mL: 95%
  activity at 1 µg/mL: 52%
[11]; 4h
  activity at 0.25 µg/mL: 103%
  activity at 0.5 µg/mL: 67%
  activity at 1 µg/mL: 40%
[11]; 8h
  activity at 0.25 µg/mL: 85%
  activity at 0.5 µg/mL: 88%
  activity at 1 µg/mL: 0%
[3]; 2h
  activity at 0.25 µg/mL: 108%
  activity at 0.5 µg/mL: 101%
  activity at 1 µg/mL: 98%
[3]; 8h
  activity at 0.25 µg/mL: 86%
  activity at 0.5 µg/mL: 37%
  activity at 1 µg/mL: 17%
[3]; 24h
  activity at 0.25 µg/mL: 70%
  activity at 0.5 µg/mL: 18%
  activity at 1 µg/mL: 6%
[3]; 2h exposure
  IC50: > 1 µg/mL
[3]; 8h exposure
  IC50: 0.47 µg/mL (≈ 0.891 µM)
[3]; 24h exposure
  IC50: 0.33 µg/mL (≈ 0.626 µM)
